In ChEMBL document CHEMBL5291721, “A preclinical secondary pharmacology resource illuminates target-adverse drug reaction associations of marketed drugs” (Nat Commun, 2023) one finds AC50 data, which are given here for 26 compounds.

For one test, the target named is D(3) dopamine receptor (Homo sapiens, UniProt P35462).
The target of test [1] is Sodium-dependent serotonin transporter (Homo sapiens, UniProt P31645).
The target in a further test is T1, Estrogen receptor (Homo sapiens, UniProt P03372).
T1 sequence (P03372 whole entry): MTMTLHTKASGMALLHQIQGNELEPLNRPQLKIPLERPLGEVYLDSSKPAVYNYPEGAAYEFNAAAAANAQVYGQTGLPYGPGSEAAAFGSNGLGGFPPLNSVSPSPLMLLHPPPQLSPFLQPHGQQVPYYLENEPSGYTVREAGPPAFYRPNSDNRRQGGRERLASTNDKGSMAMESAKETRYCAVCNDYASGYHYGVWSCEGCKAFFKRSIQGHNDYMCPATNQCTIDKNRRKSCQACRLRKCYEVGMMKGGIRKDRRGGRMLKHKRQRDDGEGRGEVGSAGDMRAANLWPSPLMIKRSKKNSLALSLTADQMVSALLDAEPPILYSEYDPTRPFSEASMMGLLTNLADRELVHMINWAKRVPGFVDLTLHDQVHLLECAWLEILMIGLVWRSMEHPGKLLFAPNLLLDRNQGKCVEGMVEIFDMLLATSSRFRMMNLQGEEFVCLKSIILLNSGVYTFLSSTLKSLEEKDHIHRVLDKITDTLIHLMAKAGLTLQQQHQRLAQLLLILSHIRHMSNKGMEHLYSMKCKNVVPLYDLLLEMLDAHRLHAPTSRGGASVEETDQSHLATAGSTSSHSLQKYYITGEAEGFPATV

The target in test [2] is T2, Amine oxidase [flavin-containing] A (Homo sapiens, UniProt P21397).
T2 sequence (P21397 whole entry): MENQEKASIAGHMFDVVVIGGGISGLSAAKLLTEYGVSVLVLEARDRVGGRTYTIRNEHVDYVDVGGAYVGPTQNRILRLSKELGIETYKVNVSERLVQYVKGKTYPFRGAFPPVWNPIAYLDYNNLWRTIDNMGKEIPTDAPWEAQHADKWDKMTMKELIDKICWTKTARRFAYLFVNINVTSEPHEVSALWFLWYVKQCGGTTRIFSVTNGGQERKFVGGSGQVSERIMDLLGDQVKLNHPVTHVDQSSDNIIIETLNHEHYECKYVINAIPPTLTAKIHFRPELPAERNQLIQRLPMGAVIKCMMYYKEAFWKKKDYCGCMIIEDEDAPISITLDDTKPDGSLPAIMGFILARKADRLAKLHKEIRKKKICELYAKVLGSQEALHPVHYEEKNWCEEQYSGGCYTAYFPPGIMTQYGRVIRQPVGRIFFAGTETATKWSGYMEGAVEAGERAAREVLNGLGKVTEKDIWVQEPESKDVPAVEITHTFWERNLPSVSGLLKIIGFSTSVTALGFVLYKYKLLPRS
The test is classed as functional.

The target in test [3] is Glutamate receptor ionotropic, NMDA 1 (Rattus norvegicus, UniProt P35439).
For a further test, the target named is T3, Adenosine receptor A3 (Homo sapiens, UniProt P0DMS8).
T3 sequence (P0DMS8 whole entry): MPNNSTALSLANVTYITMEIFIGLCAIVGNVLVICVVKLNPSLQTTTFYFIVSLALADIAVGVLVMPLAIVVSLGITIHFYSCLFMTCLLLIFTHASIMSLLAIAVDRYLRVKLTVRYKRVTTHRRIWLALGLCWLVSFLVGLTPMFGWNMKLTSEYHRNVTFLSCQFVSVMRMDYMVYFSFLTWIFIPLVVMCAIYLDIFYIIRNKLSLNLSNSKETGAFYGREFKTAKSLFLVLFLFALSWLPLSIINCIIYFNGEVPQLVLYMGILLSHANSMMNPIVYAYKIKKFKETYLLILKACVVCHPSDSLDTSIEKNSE

In test [4] the target is Neuronal acetylcholine receptor subunit alpha-4 (Homo sapiens, UniProt P43681).
Neuronal acetylcholine receptor subunit alpha-4, sequence (P43681 whole entry): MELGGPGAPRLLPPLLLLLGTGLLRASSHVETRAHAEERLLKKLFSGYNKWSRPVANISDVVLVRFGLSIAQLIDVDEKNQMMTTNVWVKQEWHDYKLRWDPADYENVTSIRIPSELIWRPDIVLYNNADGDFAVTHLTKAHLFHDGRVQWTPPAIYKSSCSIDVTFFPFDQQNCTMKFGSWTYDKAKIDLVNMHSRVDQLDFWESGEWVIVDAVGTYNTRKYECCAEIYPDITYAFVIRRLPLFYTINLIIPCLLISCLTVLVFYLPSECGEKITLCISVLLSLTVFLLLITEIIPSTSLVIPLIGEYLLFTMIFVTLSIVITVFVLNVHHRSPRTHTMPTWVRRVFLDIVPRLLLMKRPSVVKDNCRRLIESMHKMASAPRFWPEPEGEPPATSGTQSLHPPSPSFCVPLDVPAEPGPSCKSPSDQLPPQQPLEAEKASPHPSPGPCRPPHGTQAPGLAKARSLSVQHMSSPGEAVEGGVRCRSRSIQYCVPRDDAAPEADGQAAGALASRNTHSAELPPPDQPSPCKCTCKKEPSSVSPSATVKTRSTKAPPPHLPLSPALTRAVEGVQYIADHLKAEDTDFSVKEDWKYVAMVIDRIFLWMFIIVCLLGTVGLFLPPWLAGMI
Test [5] addresses Growth hormone secretagogue receptor type 1 (Homo sapiens, UniProt Q92847).
Test [6] deals with Kappa-type opioid receptor (Homo sapiens, UniProt P41145).
Kappa-type opioid receptor, sequence (P41145 whole entry): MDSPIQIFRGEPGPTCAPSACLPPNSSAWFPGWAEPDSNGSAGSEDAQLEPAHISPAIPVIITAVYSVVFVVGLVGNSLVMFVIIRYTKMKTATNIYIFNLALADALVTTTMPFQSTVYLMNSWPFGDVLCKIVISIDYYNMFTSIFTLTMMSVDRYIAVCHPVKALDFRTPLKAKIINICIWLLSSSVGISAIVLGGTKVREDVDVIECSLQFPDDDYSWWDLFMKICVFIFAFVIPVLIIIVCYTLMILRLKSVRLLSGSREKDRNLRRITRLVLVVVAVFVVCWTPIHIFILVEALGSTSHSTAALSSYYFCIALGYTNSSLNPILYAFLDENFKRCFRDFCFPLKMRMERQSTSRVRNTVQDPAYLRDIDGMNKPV
Test [7] deals with T4, 5-hydroxytryptamine receptor 1A (Homo sapiens, UniProt P08908).
T4 sequence (P08908 whole entry): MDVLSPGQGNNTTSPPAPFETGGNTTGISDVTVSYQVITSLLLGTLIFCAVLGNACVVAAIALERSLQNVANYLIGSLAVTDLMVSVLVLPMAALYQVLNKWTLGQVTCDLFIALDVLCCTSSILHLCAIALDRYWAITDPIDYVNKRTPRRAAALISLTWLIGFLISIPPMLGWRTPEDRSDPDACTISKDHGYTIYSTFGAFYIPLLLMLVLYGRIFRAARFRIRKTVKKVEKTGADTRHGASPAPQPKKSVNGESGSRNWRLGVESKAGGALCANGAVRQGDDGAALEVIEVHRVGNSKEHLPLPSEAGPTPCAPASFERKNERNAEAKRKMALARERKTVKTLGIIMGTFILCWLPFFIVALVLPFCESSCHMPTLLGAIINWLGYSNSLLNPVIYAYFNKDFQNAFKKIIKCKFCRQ
The test is classed as functional, cell-based.

Test [8] concerns the target T5, Alpha-2A adrenergic receptor (Homo sapiens, UniProt P08913).
T5 sequence (P08913 whole entry): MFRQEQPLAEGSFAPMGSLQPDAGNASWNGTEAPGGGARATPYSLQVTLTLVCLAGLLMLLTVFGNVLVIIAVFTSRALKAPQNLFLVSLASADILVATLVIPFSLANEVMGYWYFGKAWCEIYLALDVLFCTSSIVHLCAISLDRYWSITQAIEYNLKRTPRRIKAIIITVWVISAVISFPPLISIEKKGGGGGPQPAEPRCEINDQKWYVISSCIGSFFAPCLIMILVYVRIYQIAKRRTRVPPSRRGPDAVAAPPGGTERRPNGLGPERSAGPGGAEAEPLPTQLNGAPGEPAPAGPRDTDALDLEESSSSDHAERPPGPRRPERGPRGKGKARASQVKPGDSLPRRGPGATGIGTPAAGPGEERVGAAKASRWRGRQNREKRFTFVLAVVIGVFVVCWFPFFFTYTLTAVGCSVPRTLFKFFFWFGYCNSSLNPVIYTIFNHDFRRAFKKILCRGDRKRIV
The test is classed as functional, cell-based.
Note: assay procedure not described here.

Sodium-dependent serotonin transporter, sequence (P31645 whole entry): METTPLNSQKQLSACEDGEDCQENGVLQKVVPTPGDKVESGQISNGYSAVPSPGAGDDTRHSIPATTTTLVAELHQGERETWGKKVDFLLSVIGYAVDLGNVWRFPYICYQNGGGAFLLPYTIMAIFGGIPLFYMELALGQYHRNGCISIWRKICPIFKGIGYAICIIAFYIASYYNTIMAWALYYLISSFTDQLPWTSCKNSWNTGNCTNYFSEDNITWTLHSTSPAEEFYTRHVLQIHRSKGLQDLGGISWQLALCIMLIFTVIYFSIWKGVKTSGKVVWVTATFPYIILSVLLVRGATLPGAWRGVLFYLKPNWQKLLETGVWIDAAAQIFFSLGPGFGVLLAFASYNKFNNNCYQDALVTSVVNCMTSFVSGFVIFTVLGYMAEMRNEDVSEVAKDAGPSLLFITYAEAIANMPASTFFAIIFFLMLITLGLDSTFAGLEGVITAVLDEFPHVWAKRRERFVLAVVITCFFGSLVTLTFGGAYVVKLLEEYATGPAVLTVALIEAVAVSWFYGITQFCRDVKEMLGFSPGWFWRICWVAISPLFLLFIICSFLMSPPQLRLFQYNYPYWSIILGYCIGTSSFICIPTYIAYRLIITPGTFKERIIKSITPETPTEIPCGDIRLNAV
D(3) dopamine receptor, sequence (P35462 whole entry): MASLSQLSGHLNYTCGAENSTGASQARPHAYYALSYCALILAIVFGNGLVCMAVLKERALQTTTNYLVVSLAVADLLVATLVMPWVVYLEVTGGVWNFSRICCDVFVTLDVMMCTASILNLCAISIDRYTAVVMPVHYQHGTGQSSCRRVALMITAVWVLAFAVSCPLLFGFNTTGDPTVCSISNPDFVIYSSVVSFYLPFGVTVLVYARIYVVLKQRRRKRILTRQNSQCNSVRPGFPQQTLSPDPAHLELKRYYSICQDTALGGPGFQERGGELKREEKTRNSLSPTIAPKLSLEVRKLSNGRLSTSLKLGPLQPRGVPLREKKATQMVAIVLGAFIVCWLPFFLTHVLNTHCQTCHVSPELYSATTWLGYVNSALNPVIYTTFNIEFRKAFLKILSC
Growth hormone secretagogue receptor type 1, sequence (Q92847 whole entry): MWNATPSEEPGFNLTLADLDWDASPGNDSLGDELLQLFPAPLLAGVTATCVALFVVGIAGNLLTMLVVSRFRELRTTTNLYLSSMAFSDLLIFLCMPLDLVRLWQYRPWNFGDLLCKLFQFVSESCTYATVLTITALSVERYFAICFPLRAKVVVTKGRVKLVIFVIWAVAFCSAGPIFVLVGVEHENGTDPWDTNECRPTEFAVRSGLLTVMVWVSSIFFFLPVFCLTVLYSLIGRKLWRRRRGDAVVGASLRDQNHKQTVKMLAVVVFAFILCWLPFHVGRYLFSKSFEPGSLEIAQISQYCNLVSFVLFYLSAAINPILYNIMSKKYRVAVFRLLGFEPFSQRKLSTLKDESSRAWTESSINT

As for `Cc1cc2c(cc1S(N)(=O)=O)S(=O)(=O)CCC2`, the AC50 (at D(3) dopamine receptor; in test [1]; at Estrogen receptor) was greater than 30 µM throughout.

On to `C[C@H](N[C@@H](CCc1ccccc1)C(=O)O)C(=O)N1Cc2ccccc2C[C@H]1C(=O)O`, for which the AC50 (on D(3) dopamine receptor; in [1]; at Estrogen receptor) was greater than 30 µM in each case.

Turning to `O=C(O)[C@@H]1C[C@@H](O)CN1`, the AC50 (in [1]; on Estrogen receptor) was greater than 30 µM in each case.

Take `CC1(C)S[C@@H]2[C@H](/N=C/N3CCCCCC3)C(=O)N2[C@H]1C(=O)O` [AMDINOCILLIN]: the AC50 (at D(3) dopamine receptor; in test [1]; on Estrogen receptor) was greater than 30 µM in each case.

For `CC(=O)[C@]1(N)Cc2c(O)c3c(c(O)c2[C@@H](O[C@H]2C[C@H](O)[C@H](O)CO2)C1)C(=O)c1ccccc1C3=O` [AMRUBICIN], the half-maximal activity concentration (AC50) (at D(3) dopamine receptor; in [1]; at Estrogen receptor) was greater than 30 µM in each case.

In the case of `NC(=O)[C@@H]1CC[C@@H]2CN1C(=O)N2OS(=O)(=O)O` [AVIBACTAM], the half-maximal activity concentration (AC50) (at D(3) dopamine receptor; in test [1]; at Estrogen receptor) was greater than 30 µM in each case.

As to `CC(=O)OC[C@H]1O[C@@H](n2ncc(=O)[nH]c2=O)[C@H](OC(C)=O)[C@@H]1OC(C)=O` [AZARIBINE], the AC50 on D(3) dopamine receptor and on Estrogen receptor was greater than 30 µM throughout.

As for `O=C(/C=C/c1cccc(S(=O)(=O)Nc2ccccc2)c1)NO` [BELINOSTAT], the AC50 is greater than 30 µM at D(3) dopamine receptor; greater than 10 µM in [2]; greater than 10 µM in test [3]; greater than 30 µM at Adenosine receptor A3; 27.9 µM at Estrogen receptor; greater than 10 µM in test [4]. The AC50 in test [5] was greater than 30 µM; in test [6], greater than 10 µM.

Turning to `CC(C)(C)NC(=O)N[C@H](C(=O)N1C[C@H]2[C@@H]([C@H]1C(=O)NC(CC1CCC1)C(=O)C(N)=O)C2(C)C)C(C)(C)C` (some centres not stated) [BOCEPREVIR], the AC50 (at D(3) dopamine receptor; in [1]; on Estrogen receptor) was greater than 30 µM in each case.

As for `O=C(O)COCCN1CCN(C(c2ccccc2)c2ccc(Cl)cc2)CC1` (configuration not stated) [CETIRIZINE], the AC50 in test [7] is greater than 10 µM; in [2] it was greater than 10 µM; in test [3], greater than 10 µM; in test [8], greater than 10 µM; on Adenosine receptor A3, greater than 30 µM; on Estrogen receptor, greater than 30 µM. Also, the AC50 is greater than 10 µM in test [4], greater than 30 µM in test [5] and greater than 10 µM in [6].

Take `NC[C@H]1CC[C@H](C(=O)Oc2ccc(CCC(=O)O)cc2)CC1` [CETRAXATE]: the AC50 (in test [7]; on D(3) dopamine receptor; in test [2]; in test [3]; in test [8]; on Estrogen receptor) was greater than 30 µM in each case. In test [6], this compound displayed an AC50 greater than 30 µM.

For the compound `C=C1CC[C@H](O)C/C1=C/C=C1\CCC[C@]2(C)[C@@H]([C@H](C)CCCC(C)C)CC[C@@H]12` [CHOLECALCIFEROL], the concentration at half-maximal activity (AC50) at D(3) dopamine receptor is 15.6 µM; on Estrogen receptor it was greater than 30 µM.

On Estrogen receptor, `C[C@H](CCC(=O)O)[C@H]1CC[C@H]2[C@@H]3[C@H](O)C[C@@H]4C[C@H](O)CC[C@]4(C)[C@H]3C[C@H](O)[C@]12C` [CHOLIC ACID] returned an AC50 greater than 30 µM.

For the compound `Cc1ncc2c(c1O)COC2c1ccc(Cl)cc1` (configuration not stated) [CICLETANINE], the AC50 (on D(3) dopamine receptor; in test [1]; on Estrogen receptor) was greater than 30 µM each time.

Take `Cc1cn([C@H]2O[C@@H](CO)[C@H](O)[C@H]2F)c(=O)[nH]c1=O` [CLEVUDINE]: the AC50 (at D(3) dopamine receptor; in test [1]) was greater than 30 µM in each case.

With `N#Cc1ccc(Oc2ccc3c(c2)COB3O)cc1` [CRISABOROLE], the AC50 (at D(3) dopamine receptor; in test [1]; on Estrogen receptor) was greater than 30 µM throughout.

`CC(=O)[C@H]1CC[C@H]2[C@@H]3C=CC4=CC(=O)CC[C@@]4(C)[C@@H]3CC[C@]12C` [DYDROGESTERONE]: the AC50 (on D(3) dopamine receptor; in test [1]) was greater than 30 µM each time.

`CC(=O)O[C@H]1Cc2ccccc2N(C(N)=O)c2ccccc21` [ESLICARBAZEPINE ACETATE]: the AC50 (at D(3) dopamine receptor; in test [1]; at Estrogen receptor) was greater than 30 µM each time.

`Cc1ccc(S(=O)(=O)NC(=O)NC2CCCCC2)cc1` [GLYCYCLAMIDE]: the concentration at half-maximal activity (AC50) (on D(3) dopamine receptor; in test [1]; on Estrogen receptor) was greater than 30 µM each time.

In the case of `CN1CCCN(C(c2ccccc2)c2ccc(Cl)cc2)CC1` (configuration not stated) [HOMOCHLORCYCLIZINE], the AC50 was 0.0721 µM at D(3) dopamine receptor, 2.98 µM in [1] and greater than 30 µM on Estrogen receptor.

The compound `CC(=O)OCC(=O)[C@@]1(O)CC[C@H]2[C@@H]3CCC4=CC(=O)CC[C@]4(C)[C@H]3[C@@H](O)C[C@@]21C` [HYDROCORTISONE ACETATE] had a half-maximal activity concentration (AC50) in test [1] greater than 30 µM.

On to `CC(COc1ccccc1)NC(C)C(O)c1ccc(O)cc1` (configuration not stated) [ISOXSUPRINE], for which the AC50 at D(3) dopamine receptor is 0.037 µM; in [1], 5.55 µM; on Estrogen receptor, greater than 30 µM.

For the compound `COc1cccc(C(=O)CCN[C@@H](C)[C@H](O)c2ccccc2)c1` [OXYFEDRINE], the results for the AC50 (on D(3) dopamine receptor; in test [1]) were 0.382 µM and 4.77 µM, respectively.

As for `NNCCc1ccccc1` [PHENELZINE], the AC50 on D(3) dopamine receptor and at Estrogen receptor was greater than 30 µM each time.

Turning to `COC(=O)[C@H]1[C@H]2C[C@@H]3c4[nH]c5cc(OC)ccc5c4CCN3C[C@H]2C[C@@H](OC(=O)c2cc(OC)c(OC)c(OC)c2)[C@@H]1OC` [RESERPINE], the AC50 in test [7] is greater than 10 µM; on D(3) dopamine receptor it was greater than 30 µM; in [2], greater than 30 µM; in test [3], greater than 10 µM; in [8] it was greater than 10 µM; on Adenosine receptor A3 it was 26.5 µM. The AC50 is greater than 10 µM in test [4], greater than 10 µM in test [5] and 11.7 µM in test [6].

On to `Cc1ccc(C(=O)C(C)CN2CCCCC2)cc1` (configuration not stated) [TOLPERISONE], for which the results for the AC50 on D(3) dopamine receptor and at Estrogen receptor were 2.52 µM and greater than 30 µM, respectively.
